According to patent US7566712B2, “Biaryl piperazinyl-pyridine analogues” (Neurogen Corporation, priority 2003, dated 2009):

target: T1, human capsaicin receptor (Homo sapiens, UniProt Q8NER1); experiment: Calcium mobilization assay, determination of antagonist activity (Example 6); type: cell-based; conditions: Table II; IC50 determined as described in Example 6
T1 construct: pBK-CMV expression construct encoding the full length human capsaicin receptor; expressed in transfected cells
Outline: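 HEK293 clonal lines stably expressing full-length human capsaicin receptor, loaded with Fluo-3 AM in KRH buffer pH 7.4, 1–2 h at 37 °C. Compounds (1–5 μM final) preincubated 0.5–6 h at room temperature, then capsaicin at its EC50 added. FLIPR/Fluoroskan calcium signal; IC50 as 50% decrease of capsaicin response.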

T1 sequence (Q8NER1 whole entry): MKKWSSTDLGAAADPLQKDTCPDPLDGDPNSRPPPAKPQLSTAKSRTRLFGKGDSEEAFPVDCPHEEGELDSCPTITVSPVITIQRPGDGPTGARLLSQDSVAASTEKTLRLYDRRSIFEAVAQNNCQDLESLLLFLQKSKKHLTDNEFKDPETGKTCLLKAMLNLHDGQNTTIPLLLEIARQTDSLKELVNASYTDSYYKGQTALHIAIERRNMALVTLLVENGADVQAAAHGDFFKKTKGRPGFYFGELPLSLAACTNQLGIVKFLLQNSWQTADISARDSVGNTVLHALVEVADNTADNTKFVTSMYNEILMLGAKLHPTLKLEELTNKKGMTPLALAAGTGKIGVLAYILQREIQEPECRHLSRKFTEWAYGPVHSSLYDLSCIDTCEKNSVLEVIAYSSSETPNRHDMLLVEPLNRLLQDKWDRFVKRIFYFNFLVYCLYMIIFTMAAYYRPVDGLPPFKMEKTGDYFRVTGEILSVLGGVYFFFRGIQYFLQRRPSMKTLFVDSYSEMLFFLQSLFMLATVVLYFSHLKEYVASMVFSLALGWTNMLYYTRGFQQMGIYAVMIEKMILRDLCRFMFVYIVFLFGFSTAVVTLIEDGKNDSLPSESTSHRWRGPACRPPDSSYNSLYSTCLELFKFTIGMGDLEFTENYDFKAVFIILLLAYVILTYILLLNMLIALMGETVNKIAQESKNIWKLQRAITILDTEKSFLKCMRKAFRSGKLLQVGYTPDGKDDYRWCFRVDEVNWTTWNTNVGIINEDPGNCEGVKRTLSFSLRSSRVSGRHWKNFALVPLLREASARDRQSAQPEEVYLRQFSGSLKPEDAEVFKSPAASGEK

IC50, ≤ 1 µM:
C[C@@H]1CN(c2ncccc2C#N)CCN1c1cc(-c2cccc(OC(F)(F)F)c2)nc(N2CCOCC2)n1 [Example 532, 2-((3R)-3-methyl-4-{2-morpholin-4-yl-6-[3-(trifluoromethoxy)phenyl]pyrimidin-4-yl}piperazin-1-yl)nicotinonitrile]
Fc1ccc(-c2nc(N3CCOCC3)nc(N3CCN(c4ccccn4)CC3)n2)cc1F [Example 424, 2-(3,4-difluorophenyl)-4-morpholin-4-yl-6-(4-pyridin-2-ylpiperazin-1-yl)-1,3,5-triazine]
COc1cccc(-c2cc(N3CCN(c4ncccc4C#N)C[C@H]3C)nc(N3CCOCC3)n2)c1 [Example 523, 2-{(3R)-4-[6-(3-methoxyphenyl)-2-morpholin-4-ylpyrimidin-4-yl]-3-methylpiperazin-1-yl}nicotinonitrile]
CC(C)c1cccc(-c2cc(N3CCN(c4ncccc4C#N)C[C@H]3C)nc(N3CCOCC3)n2)c1 [Example 499, 2-{(3R)-4-[6-(3-isopropylphenyl)-2-morpholin-4-ylpyrimidin-4-yl]-3-methylpiperazin-1-yl}nicotinonitrile]
Fc1ccc(-c2nc(N3CCOCC3)nc(N3CCN(c4ncccc4Cl)CC3)n2)cc1Cl [Example 427, 2-(3-chloro-4-fluorophenyl)-4-[4-(3-chloropyridin-2-yl)piperazin-1-yl]-6-morpholin-4-yl-1,3,5-triazine]
CCCN1CCN(c2nc(-c3ccc(F)c(Cl)c3)cc(N3CCN(c4ncccc4C(F)(F)F)CC3)n2)CC1 [Example 547, 4-(3-chloro-4-fluorophenyl)-2-(4-propylpiperazin-1-yl)-6-{4-[3-(trifluoromethyl)pyridin-2-yl]piperazin-1-yl}pyrimidine]
CC(=O)NC1CCN(c2nc(-c3ccc(F)c(Cl)c3)cc(N3CCN(c4ncccc4C(F)(F)F)CC3)n2)C1 (centres unmarked) [Example 570, N-[1-(4-(3-chloro-4-fluorophenyl)-6-{4-[3-(trifluoromethyl)pyridin-2-yl]piperazin-1-yl}pyrimidin-2-yl)pyrrolidin-3-yl]acetamide]

same assay, conditions: Table II; IC50 determined as described in Example 6 (antagonist activity, calcium mobilization)

IC50, ≤ 1 µM:
C[C@@H]1CN(c2ccccc2F)CCN1c1cc(-c2ccc(F)c(Cl)c2)nc(N2CCOCC2)n1 [Example 991, 4-{4-(3-chloro-4-fluorophenyl)-6-[(2R)-4-(2-fluorophenyl)-2-methylpiperazin-1-yl]pyrimidin-2-yl}morpholine]
CC1CCCN1c1nc(-c2ccc(F)cc2)cc(N2CCN(c3ncncc3Cl)C[C@H]2C)n1 (stereo partly drawn) [Example 1013, 4-[(2R)-4-(5-chloropyrimidin-4-yl)-2-methylpiperazin-1-yl]-6-(4-fluorophenyl)-2-(2-methylpyrrolidin-1-yl)pyrimidine]

same assay, conditions: Table II; determined as described in Example 6 (antagonist activity); "*" = 1 micromolar or less

IC50, ≤ 1 µM:
C[C@H]1CN(c2nccnc2Cl)CCN1c1cc(-c2ccc(Cl)c(F)c2)nc(N2CCOCC2)n1 [Example 962, 4-{4-(4-chloro-3-fluorophenyl)-6-[(2S)-4-(3-chloropyrazin-2-yl)-2-methylpiperazin-1-yl]pyrimidin-2-yl}morpholine]
C[C@H]1CN(c2ncccc2Cl)CCN1c1cc(-c2ccc(F)c(F)c2)nc(N2CCCC2)n1 [Example 921, 4-[(2S)-4-(3-chloropyridin-2-yl)-2-methylpiperazin-1-yl]-6-(3,4-difluorophenyl)-2-pyrrolidin-1-ylpyrimidine]
CC1CCCN1c1nc(-c2ccc(F)c(F)c2)cc(N2CCN(c3ncccc3F)C[C@H]2C)n1 (some centres unmarked) [Example 895, 4-(3,4-difluorophenyl)-6-[4-(3-fluoropyridin-2-yl)-2-methylpiperazin-1-yl]-2-(2-methylpyrrolidin-1-yl)pyrimidine]
CC1=NCCN1c1nc(-c2ccc(F)c(Cl)c2)cc(N2CCN(c3ncccc3C(F)(F)F)CC2)n1 [Example 801, 4-(3-chloro-4-fluorophenyl)-2-(2-methyl-4,5-dihydro-1H-imidazol-1-yl)-6-{4-[3-(trifluoromethyl)pyridin-2-yl]piperazin-1-yl}pyrimidine]
Cc1ccc(-c2cc(N3CCN(c4ncccc4Cl)C[C@H]3C)nc(N3CCCC3C)n2)cc1C (stereo partly drawn) [Example 808, 4-[(2R)-4-(3-chloropyridin-2-yl)-2-methylpiperazin-1-yl]-6-(3,4-dimethylphenyl)-2-(2-methylpyrrolidin-1-yl)pyrimidine]
C[C@@H]1CN(c2nccnc2Cl)CCN1c1cc(-c2ccc(F)c(Cl)c2)nc(N2CCC[C@H]2C)n1 [Example 942, 4-(3-chloro-4-fluorophenyl)-6-[(2R)-4-(3-chloropyrazin-2-yl)-2-methylpiperazin-1-yl]-2-[(2R)-2-methylpyrrolidin-1-yl]pyrimidine]
CNC(=O)c1cnc(N2CCN(c3cc(-c4ccc(F)c(Cl)c4)nc(N4CCCC4C)n3)CC2)c(Cl)c1 (centres unmarked) [Example 825, 5-chloro-6-{4-[6-(3-chloro-4-fluorophenyl)-2-(2-methylpyrrolidin-1-yl)pyrimidin-4-yl]piperazin-1-yl}-N-methylnicotinamide]
C[C@@H]1CN(c2ncccc2F)CCN1c1cc(-c2ccc(F)c(F)c2)nc(N2CCCC2)n1 [Example 896, 4-(3,4-difluorophenyl)-6-[(2R)-4-(3-fluoropyridin-2-yl)-2-methylpiperazin-1-yl]-2-pyrrolidin-1-ylpyrimidine]

same assay, conditions: Table II; determined as described in Example 6; class symbol

IC50, ≤ 1 µM:
Cc1cc(C)cc(-c2nc(N3CCOCC3)nc(N3CCN(c4ccccn4)CC3)n2)c1 [Example 236, 2-(3,5-dimethylphenyl)-4-morpholin-4-yl-6-(4-pyridin-2-ylpiperazin-1-yl)-1,3,5-triazine]
Cc1cccc(-c2nc(N3CCN(c4ncccc4C(F)(F)F)CC3)nc(N3CC(C)OC(C)C3)n2)c1 (centres unmarked) [Example 263, 2-(2,6-dimethylmorpholin-4-yl)-4-(3-methylphenyl)-6-{4-[3-(trifluoromethyl)pyridin-2-yl]piperazin-1-yl}-1,3,5-triazine]

same assay, conditions: determined as described in Example 6 (calcium mobilization, antagonist activity); Table II

IC50, ≤ 1 µM:
CC(C)N1CC=C(c2nc(-c3ccc(F)c(Cl)c3)cc(N3CCN(c4ncccc4C(F)(F)F)CC3)n2)CC1 [Example 660, 4-(3-chloro-4-fluorophenyl)-2-(1-isopropyl-1,2,3,6-tetrahydropyridin-4-yl)-6-{4-[3-(trifluoromethyl)pyridin-2-yl]piperazin-1-yl}pyrimidine]
Cc1cc(-c2cc(N3CCN(c4ncccc4Cl)C[C@H]3C)nc(N3CCCC3)n2)ccc1F [Example 718, 4-[(2R)-4-(3-chloropyridin-2-yl)-2-methylpiperazin-1-yl]-6-(4-fluoro-3-methylphenyl)-2-pyrrolidin-1-ylpyrimidine]
Cc1cc(-c2cc(N3CCN(c4ncccc4C(F)(F)F)CC3)nc(-c3nccn3C(C)C)n2)ccc1F [Example 684, 4-(4-fluoro-3-methylphenyl)-2-(1-isopropyl-1H-imidazol-2-yl)-6-{4-[3-(trifluoromethyl)pyridin-2-yl]piperazin-1-yl}pyrimidine]
CC1CCCN1c1nc(-c2ccc(F)c(Cl)c2)cc(N2CCN(c3ncccc3Cl)C[C@H]2C)n1 (stereo partly drawn) [Example 732, 4-(3-chloro-4-fluorophenyl)-6-[(2R)-4-(3-chloropyridin-2-yl)-2-methylpiperazin-1-yl]-2-(2-methylpyrrolidin-1-yl)pyrimidine]
Cc1ccc(-c2cc(N3CCN(c4ncccc4C(F)(F)F)CC3)nc(N3CCOCC3)n2)cn1 [Example 606, 4-(4-(6-methylpyridin-3-yl)-6-{4-[3-(trifluoromethyl)pyridin-2-yl]piperazin-1-yl}pyrimidin-2-yl)morpholine]
CC(=N)N1CCN(c2nc(-c3ccc(F)c(C)c3)cc(N3CCN(c4ncccc4C(F)(F)F)CC3)n2)CC1 [Example 657, 1-[4-(4-(4-fluoro-3-methylphenyl)-6-{4-[3-(trifluoromethyl)pyridin-2-yl]piperazin-1-yl}pyrimidin-2-yl)piperazin-1-yl]ethanimine]
CC1CCCN1c1nc(-c2ccc(F)c(F)c2)cc(N2CCN(c3ncccc3Cl)C[C@H]2C)n1 (stereo partly drawn) [Example 768, 4-[(2R)-4-(3-chloropyridin-2-yl)-2-methylpiperazin-1-yl]-6-(3,4-difluorophenyl)-2-(2-methylpyrrolidin-1-yl)pyrimidine]
Cc1cncc(-c2cc(N3CCN(c4ncccc4C(F)(F)F)CC3)nc(N3CCOCC3)n2)c1 [Example 631, 4-(4-(5-methylpyridin-3-yl)-6-{4-[3-(trifluoromethyl)pyridin-2-yl]piperazin-1-yl}pyrimidin-2-yl)morpholine]
Cc1cn(-c2nc(-c3cccc(Cl)c3)cc(N3CCN(c4ncccc4C(F)(F)F)CC3)n2)c(C)n1 [Example 637, 4-(3-chlorophenyl)-2-(2,4-dimethyl-1H-imidazol-1-yl)-6-(4-[3-(trifluoromethyl)pyridin-2-yl]piperazin-1-yl}pyrimidine]
CC(C)CN(C)c1nc(-c2ccc(F)c(Cl)c2)cc(N2CCN(c3ncccc3C(F)(F)F)CC2)n1 [Example 615, 4-(3-chloro-4-fluorophenyl)-N-isobuty-methyl-6-{4-[3-(trifluoromethyl)pyridin-2-yl]piperazin-1-yl}pyrimidin-2-amine]
